According to patent US20240083853A1, “HSD17B13 INHIBITORS AND USES THEREOF” (FL2022-001, Inc., priority 2020, published 2024):

Target: T1, Recombinant human HSD17B13 enzyme (Homo sapiens, UniProt Q7Z5P4)
T1 sequence (Q7Z5P4 20-300): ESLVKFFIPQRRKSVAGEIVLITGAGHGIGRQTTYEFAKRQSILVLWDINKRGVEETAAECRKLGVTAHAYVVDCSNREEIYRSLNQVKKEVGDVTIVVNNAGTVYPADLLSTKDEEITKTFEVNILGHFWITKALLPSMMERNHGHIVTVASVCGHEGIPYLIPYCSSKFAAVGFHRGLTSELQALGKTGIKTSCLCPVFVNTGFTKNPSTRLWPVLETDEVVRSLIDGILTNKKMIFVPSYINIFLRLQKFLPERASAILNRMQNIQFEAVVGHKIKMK
Experiment: HSD17b13 NAD(P)H-Glo biochemical assay
Conditions: 50 uM estradiol, 1 mM NAD+, NAD(P)H-Glo luminescence; read-out: HSD17β13 IC50
Method: Example B-1: HSD17b13 NAD(P)H-Glo Biochemical Assay
Recombinant human HSD17B13 enzyme. Substrate: estradiol (Sigma β-Estradiol E8875), 100 mM in DMSO. Cofactor: NAD+ Grade I free acid (Sigma 10127965001), 20 mM in H2O. Assay buffer final concentration: 20 mM Tris pH7.4 with 0.002% Tween-20 and 0.02% BSA. Assay performed in 384 well solid bottom plate (Corning 3570). Enzymatic activity detected by NAD(P)H-Glo™ Detection System (Promega G9062).
Inhibitor compounds were serially diluted in DMSO and then further diluted in assay buffer to a 10× concentration consisting of 1% DMSO.
HSD17b13 enzyme was diluted in 1× assay buffer to the desired enzyme concentration based on the specific activity of the enzyme lot. 20 uL of diluted enzyme was added to each well along with 2.5 uL of 10× inhibitor solution. Assay plate was incubated at RT for 20 minutes, and then 2.5 uL of a 10× substrate/cofactor mix was added to each well for a final concentration of 50 uM estradiol and 1 mM NAD+. Assay plate was incubated at 37° C. for 3 hours. NAD(P)H-Glo™ Detection System reagents were prepared according to manufacturer's specifications, and 25 uL was added to each well. After incubating for 1 hour at RT, luminescence was measured.

Structure (SMILES) | IC50
NS(=O)(=O)c1cccc(-c2ccc(-n3ncc4cc(F)c(O)cc43)cc2)c1 [Compound 13.37, 4′-(5-Fluoro-6-hydroxy-1H-indazol-1-yl)-[1,1′-biphenyl]-3-sulfonamide] | 100 to 1000 nM
NS(=O)(=O)c1ccc(-c2ccc(-n3ncc4cc(F)c(O)cc43)cc2)cc1 [Compound 13.38, 4′-(5-Fluoro-6-hydroxy-1H-indazol-1-yl)-[1,1′-biphenyl]-4-sulfonamide] | < 100 nM
N#Cc1ccc(-c2ccc(-n3ncc4cc(F)c(O)c(F)c43)cc2)cc1 [Compound 13.39, 4′-(5,7-Difluoro-6-hydroxy-1H-indazol-1-yl)-[1,1′-biphenyl]-4-carbonitrile] | < 100 nM
CS(=O)(=O)c1ccc(-c2ccc(-n3ncc4cc(F)c(O)c(F)c43)cc2)cc1 [Compound 13.40, 5,7-Difluoro-1-(4′-(methylsulfonyl)-[1,1′-biphenyl]-4-yl)-1H-indazol-6-ol] | 100 to 1000 nM
N#Cc1ccc(-c2ccc(-n3ncc4cc(F)c(O)c(F)c43)cc2)cn1 [Compound 14, 5-(4-(5,7-Difluoro-6-hydroxy-1H-indazol-1-yl)phenyl)picolinonitrile] | < 100 nM
Oc1c(F)cc2cnn(-c3ccc(-c4cn[nH]c4)cc3)c2c1F [Compound 14.1, 1-(4-(1H-Pyrazol-4-yl)phenyl)-5,7-difluoro-1H-indazol-6-ol] | 100 to 1000 nM
Oc1c(F)cc2cnn(-c3ccc(-c4cc[nH]n4)cc3)c2c1F [Compound 14.2, 1-(4-(1H-Pyrazol-3-yl)phenyl)-5,7-difluoro-1H-indazol-6-ol] | 100 to 1000 nM
Oc1c(F)cc2cnn(-c3ccc(-c4cccnc4)cc3)c2c1F [Compound 14.3, 5,7-Difluoro-1-(4-(pyridin-3-yl)phenyl)-1H-indazol-6-ol] | < 100 nM
Oc1c(F)cc2cnn(-c3ccc(-c4ccncc4)cc3)c2c1F [Compound 14.4, 5,7-Difluoro-1-(4-(pyridin-4-yl)phenyl)-1H-indazol-6-ol] | < 100 nM
Oc1cc2c(cnn2-c2ccc(-c3ccc(O)c(Cl)c3)cc2)cc1F [Compound 15, 1-(3′-Chloro-4′-hydroxy-[1,1′-biphenyl]-4-yl)-5-fluoro-1H-indazol-6-ol] | 100 to 1000 nM
Cc1cc(-c2ccc(O)cc2)ccc1-n1ncc2cc(F)c(O)cc21 [Compound 15.1, 5-Fluoro-1-(4′-hydroxy-3-methyl-[1,1′-biphenyl]-4-yl)-1H-indazol-6-ol] | 100 to 1000 nM
Oc1ccc(-c2ccc(-n3ncc4cc(F)c(O)cc43)cn2)cc1 [Compound 15.2, 5-Fluoro-1-(6-(4-hydroxyphenyl)pyridin-3-yl)-1H-indazol-6-ol] | 100 to 1000 nM
Oc1ccc(-c2ccc(-n3ncc4cc(F)c(O)cc43)nc2)cc1 [Compound 15.3, 5-Fluoro-1-(5-(4-hydroxyphenyl)pyridin-2-yl)-1H-indazol-6-ol] | 100 to 1000 nM
Oc1cccc(-c2ccc(-n3ncc4c(F)c(F)c(O)c(F)c43)cc2)c1 [Compound 15.4, 4,5,7-Trifluoro-1-(3′-hydroxy-[1,1′-biphenyl]-4-yl)-1H-indazol-6-ol] | 100 to 1000 nM
Oc1cccc(-c2ccc(-n3ncc4c(F)cc(O)c(F)c43)cc2)c1 [Compound 16, 4,7-Difluoro-1-(3′-hydroxy-[1,1′-biphenyl]-4-yl)-1H-indazol-6-ol] | 100 to 1000 nM
Oc1cccc(-c2ccc(-n3ncc4cc(F)c(O)c(Cl)c43)cc2)c1 [Compound 17, 7-Chloro-5-fluoro-1-(3′-hydroxy-[1,1′-biphenyl]-4-yl)-1H-indazol-6-ol] | 100 to 1000 nM
Oc1c(F)cc2cnn(-c3cnc(-c4ccc(Cl)cc4)cn3)c2c1F [Compound 18, 1-(5-(4-Chlorophenyl)pyrazin-2-yl)-5,7-difluoro-1H-indazol-6-ol] | < 100 nM
Oc1ccc2cnn(-c3ccc(-c4ccc(O)c(Cl)c4)cc3)c2c1 [Compound 18.1, 1-(3′-Chloro-4′-hydroxy-[1,1′-biphenyl]-4-yl)-1H-indazol-6-ol] | 100 to 1000 nM
Oc1c(F)cc2cnn(-c3ccc(-c4ccc(Cl)cc4)nc3)c2c1F [Compound 18.2, 1-(6-(4-Chlorophenyl)pyridin-3-yl)-5,7-difluoro-1H-indazol-6-ol] | < 100 nM
Oc1c(F)cc2cnn(-c3ccc(-c4ccc(Cl)cc4)cn3)c2c1F [Compound 18.3, 1-(5-(4-Chlorophenyl)pyridin-2-yl)-5,7-difluoro-1H-indazol-6-ol] | < 100 nM
Oc1c(F)cc2cnn(-c3ncc(-c4ccc(Cl)cc4)cn3)c2c1F [Compound 18.4, 1-(5-(4-Chlorophenyl)pyrimidin-2-yl)-5,7-difluoro-1H-indazol-6-ol] | < 100 nM
CS(=O)(=O)N1CCN(c2ccc(-n3ncc4cc(F)c(O)c(F)c43)cc2)CC1 [Compound 19, 5,7-Difluoro-1-(4-(4-(methylsulfonyl)piperazin-1-yl)phenyl)-1H-indazol-6-ol] | 100 to 1000 nM

Further lines, results first:

IC50 | Structure (SMILES)
< 100 nM | CS(=O)(=O)N1CCN(c2ccc(-n3ncc4cc(F)c(O)c(F)c43)cc2Cl)CC1 [Compound 19.1, 1-(3-Chloro-4-(4-(methylsulfonyl)piperazin-1-yl)phenyl)-5,7-difluoro-1H-indazol-6-ol]
< 100 nM | CS(=O)(=O)N1CCN(c2ccc(-n3ncc4cc(F)c(O)c(F)c43)c(Cl)c2)CC1 [Compound 20.1, 1-(2-Chloro-4-(4-(methylsulfonyl)piperazin-1-yl)phenyl)-5,7-difluoro-1H-indazol-6-ol]
100 to 1000 nM | Cc1cc(N2CCN(S(C)(=O)=O)CC2)ccc1-n1ncc2cc(F)c(O)c(F)c21 [Compound 20.2, 5,7-Difluoro-1-(2-methyl-4-(4-(methylsulfonyl)piperazin-1-yl)phenyl)-1H-indazol-6-ol]
< 100 nM | Cc1cc(-n2ncc3cc(F)c(O)c(F)c32)ccc1N1CCN(S(C)(=O)=O)CC1 [Compound 20.3, 5,7-Difluoro-1-(3-methyl-4-(4-(methylsulfonyl)piperazin-1-yl)phenyl)-1H-indazol-6-ol]
< 100 nM | CC1CN(c2ccc(-n3ncc4cc(F)c(O)c(F)c43)cc2)CCO1 (centres unmarked) [Compound 20.4, 5,7-Difluoro-1-(4-(2-methylmorpholino)phenyl)-1H-indazol-6-ol]
< 100 nM | CC1(C)CN(c2ccc(-n3ncc4cc(F)c(O)c(F)c43)cc2)CCO1 [Compound 20.5, 1-(4-(2,2-Dimethylmorpholino)phenyl)-5,7-difluoro-1H-indazol-6-ol]
100 to 1000 nM | CC1(C)COCCN1c1ccc(-n2ncc3cc(F)c(O)c(F)c32)cc1 [Compound 20.6, 1-(4-(3,3-Dimethylmorpholino)phenyl)-5,7-difluoro-1H-indazol-6-ol]
< 100 nM | C[C@@H]1CN(c2ccc(-n3ncc4cc(F)c(O)c(F)c43)cc2)C[C@H](C)O1 [Compound 20.7, 1-(4-(cis-2,6-Dimethylmorpholino)phenyl)-5,7-difluoro-1H-indazol-6-ol]
< 100 nM | CS(=O)(=O)N1CCN(c2ccc(-n3ncc4cc(F)c(O)c(F)c43)c(F)c2)CC1 [Compound 20.8, 5,7-Difluoro-1-(2-fluoro-4-(4-(methylsulfonyl)piperazin-1-yl)phenyl)-1H-indazol-6-ol]
< 100 nM | CC(C)C1CCN(c2ccc(-n3ncc4cc(F)c(O)c(F)c43)cc2)CC1 [Compound 20.9, 5,7-Difluoro-1-(4-(4-isopropylpiperidin-1-yl)phenyl)-1H-indazol-6-ol]
< 100 nM | Oc1c(F)cc2nnn(-c3ccc(N4CC5(CCOCC5)C4)cc3)c2c1F [Compound 20.10, 1-(4-(7-Oxa-2-azaspiro[3.5]nonan-2-yl)phenyl)-5,7-difluoro-1H-benzo[d][1,2,3]triazol-6-ol]
100 to 1000 nM | Oc1c(F)cc2ncn(-c3ccc(N4CC5(CCOCC5)C4)cc3)c2c1F [Compound 20.11, 1-(4-(7-Oxa-2-azaspiro[3.5]nonan-2-yl)phenyl)-5,7-difluoro-1H-benzo[d]imidazol-6-ol]
< 100 nM | CC1(C)CN(c2ccc(-n3ncc4cc(F)c(O)c(F)c43)cc2)CC(C)(C)O1 [Compound 20.12, 5,7-Difluoro-1-(4-(2,2,6,6-tetramethylmorpholino)phenyl)-1H-indazol-6-ol]
100 to 1000 nM | CS(=O)(=O)C1CN(c2ccc(-n3nnc4cc(F)c(O)c(F)c43)cc2)C1 [Compound 20.14, 5,7-Difluoro-1-(4-(3-(methylsulfonyl)azetidin-1-yl)phenyl)-1H-benzo[d][1,2,3]triazol-6-ol]
1000 to 30000 nM | CS(=O)(=O)C1CN(c2ccc(-n3cnc4cc(F)c(O)c(F)c43)cc2)C1 [Compound 20.15, 5,7-Difluoro-1-(4-(3-(methylsulfonyl)azetidin-1-yl)phenyl)-1H-benzo[d]imidazol-6-ol]
100 to 1000 nM | CC1(CO)CN(c2ccc(-n3ncc4cc(F)c(O)c(F)c43)cc2)C1 [Compound 20.16, 5,7-Difluoro-1-(4-(3-(hydroxymethyl)-3-methylazetidin-1-yl)phenyl)-1H-indazol-6-ol]
